The values below come from US20180099931A1 (AbbVie S.à.r.l., priority 2016, published 2018).

Like-named read-outs stand apart in the source and are kept apart here. Some results are limits rather than exact numbers.

This experiment has as its target T1, F508delCFTR (Homo sapiens, UniProt P13569, DEL508-508).
T1 construct: expressed in transfected cells; host or cells: CFBE41o- human lung-derived epithelial cells (CFBE4lo-F508delCFTR-HRP), doxycycline-inducible
Description: Cell Surface Expression-Horse Radish Peroxidase (CSE-HRP) Assay.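 As to Maximum % activity (with co-corrector): co-corrector and positive control are both the same reference corrector at 2 µM.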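 As to Maximum % activity (without co-corrector): percent of the 2 µM on-plate positive control corrector response above DMSO.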 In kind it is cell-based. To be noted: for Maximum % activity (with co-corrector) / Emax: maximum at any tested concentration, normalized to on-plate positive control; for Emax: read-out: Maximum % activity (without co-corrector).

Setting [1] is: CSE-HRP, test compound without co-corrector, read-out: EC50 (without co-corrector).
[2] abbreviates: CSE-HRP, with co-corrector (2 μM of 3-[(2R,4R)-4-({[1-(2,2-difluoro-1,3-benzodioxol-5-yl)cyclopropyl]carbonyl}amino)-7-methoxy-3,4-dihydro-2H-chromen-2-yl]benzoic acid), read-out: EC50 (with co-corrector).
Where [3] appears, read: CSE-HRP, with co-corrector (2 μM).
Where [4] appears, read: test compound without co-corrector.
Setting [5] is: test compound without co-corrector, read-out: EC50 (without co-corrector).
Setting [6] is: with co-corrector (2 μM of 3-[(2R,4R)-4-({[1-(2,2-difluoro-1,3-benzodioxol-5-yl)cyclopropyl]carbonyl}amino)-7-methoxy-3,4-dihydro-2H-chromen-2-yl]benzoic acid).
Where [7] appears, read: with co-corrector (2 μM of 3-[(2R,4R)-4-({[1-(2,2-difluoro-1,3-benzodioxol-5-yl)cyclopropyl]carbonyl}amino)-7-methoxy-3,4-dihydro-2H-chromen-2-yl]benzoic acid), read-out: EC50 (with co-corrector).

T1 sequence (P13569 with tags, fused parts or gaps DEL508-508): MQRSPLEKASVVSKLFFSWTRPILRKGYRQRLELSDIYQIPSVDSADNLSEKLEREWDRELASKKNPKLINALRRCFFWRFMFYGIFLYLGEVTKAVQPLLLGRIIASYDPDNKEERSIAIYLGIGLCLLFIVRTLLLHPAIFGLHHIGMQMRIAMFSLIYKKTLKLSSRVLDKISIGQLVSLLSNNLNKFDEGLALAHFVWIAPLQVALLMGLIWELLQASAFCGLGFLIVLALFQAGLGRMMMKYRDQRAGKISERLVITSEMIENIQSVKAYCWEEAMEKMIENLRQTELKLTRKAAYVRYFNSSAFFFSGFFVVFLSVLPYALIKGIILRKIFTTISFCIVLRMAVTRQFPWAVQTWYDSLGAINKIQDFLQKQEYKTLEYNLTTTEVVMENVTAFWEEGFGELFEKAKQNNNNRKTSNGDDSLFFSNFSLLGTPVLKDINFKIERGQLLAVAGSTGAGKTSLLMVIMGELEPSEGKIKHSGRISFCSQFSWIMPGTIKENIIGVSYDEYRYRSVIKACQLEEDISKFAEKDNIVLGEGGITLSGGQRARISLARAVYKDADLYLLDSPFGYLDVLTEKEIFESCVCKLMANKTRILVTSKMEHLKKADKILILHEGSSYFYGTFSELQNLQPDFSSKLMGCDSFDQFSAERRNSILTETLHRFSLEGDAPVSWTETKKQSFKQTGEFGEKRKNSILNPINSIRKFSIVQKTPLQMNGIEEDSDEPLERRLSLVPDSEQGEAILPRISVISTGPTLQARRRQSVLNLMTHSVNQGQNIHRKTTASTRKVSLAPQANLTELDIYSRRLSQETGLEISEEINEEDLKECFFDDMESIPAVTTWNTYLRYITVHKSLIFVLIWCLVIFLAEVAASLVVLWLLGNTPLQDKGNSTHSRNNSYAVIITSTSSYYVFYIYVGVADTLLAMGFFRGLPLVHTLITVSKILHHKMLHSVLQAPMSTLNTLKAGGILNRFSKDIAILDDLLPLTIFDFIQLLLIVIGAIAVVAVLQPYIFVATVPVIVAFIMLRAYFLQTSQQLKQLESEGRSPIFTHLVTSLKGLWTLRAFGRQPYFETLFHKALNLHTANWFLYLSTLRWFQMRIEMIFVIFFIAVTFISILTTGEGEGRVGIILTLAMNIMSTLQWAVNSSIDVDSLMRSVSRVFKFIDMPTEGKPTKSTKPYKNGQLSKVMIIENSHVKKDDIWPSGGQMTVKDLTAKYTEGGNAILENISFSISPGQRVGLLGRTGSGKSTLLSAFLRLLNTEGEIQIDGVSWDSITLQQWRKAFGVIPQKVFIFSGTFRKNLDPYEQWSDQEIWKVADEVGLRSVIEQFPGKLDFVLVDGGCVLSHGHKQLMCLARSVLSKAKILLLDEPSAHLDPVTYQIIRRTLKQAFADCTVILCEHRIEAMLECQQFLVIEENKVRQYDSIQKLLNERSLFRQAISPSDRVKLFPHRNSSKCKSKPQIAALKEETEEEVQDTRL

What is called EC50 is the midpoint of the concentration-response curve. With `COc1ccc(Br)c(CN[C@H]2[C@H](C(C)(C)C)[C@@H](C(=O)O)N(C(=O)C3CCCCC3)[C@H]2c2ccccc2)c1` [II-110], the EC50 lay within 1000 to 10000 nM under setting [1] and 1000 to 10000 nM under setting [2]. In addition, under setting [3], the “Maximum % activity (with co-corrector)” value was “+++ (≥350)”. Further, the Emax (CSE-HRP, without co-corrector) is < 100%.

Regarding `COc1cccc([C@@H]2[C@H](Nc3cc(C(F)(F)F)cc(C)n3)[C@@H](C(C)(C)C)[C@H](C(=O)O)N2C(=O)C2CCCCO2)n1` (mixture of isomers) [III-63], the Emax under setting [4] is < 100%. For the same compound, the EC50 runs as follows: under setting [5], > 10000 nM; under setting [7], > 10000 nM. Besides, the “Maximum % activity (with co-corrector)” value under setting [6] is “+ (<150)”.

Consider `COc1cc(CN[C@H]2[C@H](C(C)(C)C)[C@@H](C(=O)O)N(C(=O)C3CCCCC3)[C@H]2c2ccccc2)c(F)cc1Cl` [II-104], for which the EC50 under setting [1] was 1000 to 10000 nM and the EC50 under setting [2] lay in the range of 1000 to 10000 nM. The “Maximum % activity (with co-corrector)” value under setting [3] is “++ (≥150 and <350)”. The Emax (CSE-HRP, without co-corrector) is < 100%.

Regarding `Cc1cc(C(F)(F)F)cc(N[C@@H]2[C@@H](C(C)(C)C)[C@H](C(=O)O)N(C(=O)OC(C)C)[C@@H]2c2cccnc2N(C)C)n1` (racemic) [III-93], the Emax under setting [4] was < 100%. Moreover, the EC50 lay in the range of 1000 to 10000 nM under setting [5] and 1000 to 10000 nM under setting [7]. Also, the “Maximum % activity (with co-corrector)” value under setting [6] was “++ (≥150 and <350)”.

For `COc1cc(C(F)(F)F)ccc1CN[C@H]1[C@H](C(C)(C)C)[C@@H](C(=O)O)N(C(=O)OC(C)C)[C@H]1c1ccccc1` [II-487], the Emax under setting [4] is > 200%. For the same compound, the concentration giving a half-maximal response (EC50) was in the range of 1000 to 10000 nM under setting [5] and 1000 to 10000 nM under setting [7]. For the same compound, the “Maximum % activity (with co-corrector)” value under setting [6] is given as “+++ (≥350)”.

Regarding `COc1ccc(C(F)(F)F)cc1CN[C@H]1[C@H](C(C)(C)C)[C@@H](C(=O)O)N(C(=O)OC(C)C)[C@H]1c1ccccc1C` [II-581], under setting [4], the Emax was > 200%. For the same compound, the EC50 was 1000 to 10000 nM under setting [5] and < 1000 nM under setting [7]. Also, the “Maximum % activity (with co-corrector)” value under setting [6] is reported as “+++ (≥350)”.

`COc1ncc(C(F)(F)F)cc1CN[C@H]1[C@H](C(C)(C)C)[C@@H](C(=O)O)N(C(=O)[C@H](C)c2ccccc2)[C@H]1c1cccnc1OC` [Example I-240]: the EC50 under setting [5] lay in the range of 1000 to 10000 nM and the EC50 under setting [7] lay in the range of 1000 to 10000 nM. Moreover, the “Maximum % activity (with co-corrector)” value (with co-corrector (2 μM)) is reported as “+++ (≥350)”. Also, for the setting “without co-corrector”, the Emax was < 100%.

With `COc1ccccc1CN[C@@H]1[C@@H](C(C)(C)C)[C@H](C(=O)O)N(C(=O)C2CCCCC2)[C@@H]1c1ccccc1` (racemic) [III-12], the Emax under setting [4] is < 100%. Besides, the EC50 reads like this: under setting [5], 1000 to 10000 nM; under setting [7], 1000 to 10000 nM. Further, the “Maximum % activity (with co-corrector)” value under setting [6] was “+++ (≥350)”.

With `COc1cc(C(F)(F)F)ccc1CN[C@H]1[C@H](C(C)(C)C)[C@@H](C(=O)O)N(C(=O)[C@H]2CCCCO2)[C@H]1c1cccnc1N(C)C` [II-494], under setting [4], the Emax is < 100%. Moreover, the EC50 reads like this: under setting [5], 1000 to 10000 nM; under setting [7], 1000 to 10000 nM. Besides, the “Maximum % activity (with co-corrector)” value under setting [6] was “++ (≥150 and <350)”.

Regarding `COc1ccc(C(C)(C)C)cc1CN[C@H]1[C@H](C(C)(C)C)[C@@H](C(=O)O)N(C(=O)C2Cc3ccccc3O2)[C@H]1c1ccccc1` (single isomer, unassigned) [Example 28, (2S,3S,4S,5S)-3-tert-butyl-4-{[(5-tert-butyl-2-methoxyphenyl)methyl]amino}-1-[(2S*)-2,3-dihydro-1-benzofuran-2-carbonyl]-5-phenylpyrrolidine-2-carboxylic acid], the EC50 by setting is: under setting [5], < 1000 nM; under setting [7], < 1000 nM. Under “with co-corrector (2 μM)”, the “Maximum % activity (with co-corrector)” value is “+++ (≥350)”. Besides, the Emax (without co-corrector) was > 200%.

Turning to `COc1cc(C(F)(F)F)ccc1CN[C@H]1[C@H](C(C)(C)C)[C@@H](C(=O)O)N(C(=O)[C@H](OC)c2ccccc2)[C@H]1c1cccnc1N(C)C` (racemic) [II-48], the EC50 runs as follows: under setting [1], 1000 to 10000 nM; under setting [2], 1000 to 10000 nM. Under setting [3], the “Maximum % activity (with co-corrector)” value was “+++ (≥350)”. Further, the Emax (CSE-HRP, without co-corrector) was 100 to 200%.
